Patent US8901168B2 (priority 2007, dated 2014)

Key:
splenocytes = tested on: splenocytes; design: species or system BALB/c mice; settings: mouse, in vivo
IFN-γ = tested on: IFN-γ; design: species or system BALB/c mice; settings: mouse, in vivo
[1] = mice; for total vitamin E accumulation in adipose tissues: compared to unsupplemented control mice; for δ-T3 concentration in adipose tissue: compared to the rest of the groups
[2] = 1 mg oral gavage daily for 56 days

Compound	splenocyte proliferation, comparison between vitamin E treated groups (splenocytes)	splenocyte proliferative response to Con A (splenocytes)	splenocyte proliferative response to TT (splenocytes)	IFN-γ production following Con A stimulation compared to α-T treated mice (IFN-γ)	total vitamin E levels in adipose tissues, ranking of groups ([1]; 1 mg oral gavage daily for 56 days, between supplemented groups)	total vitamin E accumulation in adipose tissues [1, 2]	δ-T3 concentration in adipose tissue ([1]; 56 days)	α-T (tocopherol) concentration in adipose tissue ([1]; 56 days, compared to the rest of the animal groups)	γ-T3 concentration in adipose tissue ([1]; 56 days, compared to the rest of the animals)
CC(C)=CCC/C(C)=C/CC/C(C)=C/CC[C@]1(C)CCc2cc(O)cc(C)c2O1 [δ-T3, δ-tocotrienol]	slightly increased	significantly (P<0.05) greater proliferative response	significantly (P<0.05) greater proliferative response	significant (P<0.05) increase	highest	significant (P<0.05) levels of total vitamin E accumulation	highest in the δ-T3 fed animals and the levels were highly significant (P<0.01)	–	–
Cc1c(C)c2c(c(C)c1O)CC[C@@](C)(CCC[C@H](C)CCC[C@H](C)CCCC(C)C)O2 [α-T, α-tocopherol]	–	significantly (P<0.05) greater proliferative response	significantly (P<0.05) greater proliferative response	–	–	significant (P<0.05) levels of total vitamin E accumulation	did not have any detectable amounts	significantly (P<0.05) high concentrations of tocopherol	did not have any detectable amounts
